This note sets out measurements from patent publication US9446130B2, “BTK inhibitors” (MERCK SHARP & DOHME CORP., priority 2013, dated 2016).

The target in this experiment is BTK enzyme (hBTK, full-length recombinant) (Homo sapiens (Human), UniProt Q06187). Nature of the experiment: Btk enzyme activity assay, Method B: LANCE TR-FRET. Format: biochemical. The note with it: 25 μM ATP, 60 minute compound & enzyme incubation. The method, then:
Also BTK enzymatic activity was determined with the LANCE (Lanthanide Chelate Excite) TR-FRET (Time-resolved fluorescence resonance energy transfer) assay. […] The final reaction in each well of 10 μL consists of 100 pM hBTK, 2 μM biotin-A5-peptide, and 25 μM ATP. Phosphorylation reactions were allowed to proceed for 120 minutes. […] After 60 minutes incubation with detection reagents, reaction plates were read on a PerkinElmer EnVision plate reader using standard TR-FRET protocol. Briefly, excitation of donor molecules (Eu-chelate:anti-phospho-antibody) with a laser light source at 337 nm produces energy that can be transferred to Dylight-650 acceptor molecules if this donor:acceptor pair is within close proximity. Fluorescence intensity at both 665 nm (acceptor) and 615 nm (donor) are measured and a TR-FRET ratio calculated for each well (acceptor intensity/donor intensity). IC50 values were determined by 4 parameter robust fit of TR-FRET ratio values vs. (Log10) compound concentrations. BTK enzymatic activity was determined with the LANCE (Lanthanide Chelate Excite) TR-FRET (Time-resolved fluorescence resonance energy transfer) assay. […] The final reaction in each well of 10 μL consists of 50 pM hBTK, 2 μM biotin-A5-peptide, and 25 μM ATP. Phosphorylation reactions were allowed to proceed for 120 minutes. […] After 60 minutes incubation with detection reagents, reaction plates were read on a PerkinElmer EnVision plate reader using standard TR-FRET protocol. Briefly, excitation of donor molecules (Eu-chelate:anti-phospho-antibody) with a laser light source at 337 nm produces energy that can be transferred to Dylight-650 acceptor molecules if this donor:acceptor pair is within close proximity. Fluorescence intensity at both 665 nm (acceptor) and 615 nm (donor) are measured and a TR-FRET ratio calculated for each well (acceptor intensity/donor intensity). IC50 values were determined by 4 parameter robust fit of TR-FRET ratio values vs. (Log10) compound concentrations.

BTK enzyme (hBTK, full-length recombinant), sequence (Q06187 whole entry): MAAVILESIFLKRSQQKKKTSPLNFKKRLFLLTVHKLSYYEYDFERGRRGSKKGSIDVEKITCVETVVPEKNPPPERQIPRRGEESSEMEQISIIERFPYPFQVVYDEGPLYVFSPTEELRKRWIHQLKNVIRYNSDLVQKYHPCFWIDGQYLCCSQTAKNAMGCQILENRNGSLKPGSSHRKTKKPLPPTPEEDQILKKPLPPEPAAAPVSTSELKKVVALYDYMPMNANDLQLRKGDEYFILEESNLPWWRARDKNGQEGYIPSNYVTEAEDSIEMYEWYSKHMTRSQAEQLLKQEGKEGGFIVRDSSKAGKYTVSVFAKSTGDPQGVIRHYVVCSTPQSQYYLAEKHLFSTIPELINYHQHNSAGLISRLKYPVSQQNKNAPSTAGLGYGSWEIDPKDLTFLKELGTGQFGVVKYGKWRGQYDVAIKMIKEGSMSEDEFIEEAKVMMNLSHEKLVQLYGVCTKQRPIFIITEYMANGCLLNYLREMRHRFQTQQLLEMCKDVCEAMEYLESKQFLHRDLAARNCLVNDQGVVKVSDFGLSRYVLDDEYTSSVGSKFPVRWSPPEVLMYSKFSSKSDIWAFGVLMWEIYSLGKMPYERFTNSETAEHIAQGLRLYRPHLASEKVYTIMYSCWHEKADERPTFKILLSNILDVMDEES

Regarding `Cn1ncc2c1CCC[C@@]2(O)c1nc(-c2ccc(C(=O)Nc3cc(C(F)(F)F)ccn3)cc2)c2c(N)nccn12` [Example 2, (S)-4-(8-amino-3-(4-hydroxy-1-methyl-4,5,6,7-tetrahydro-1H-indazol-4-yl)imidazo[1,5-a]pyrazin-1-yl)-N-(4-(trifluoromethyl)pyridin-2-yl)benzamide], the IC50 was 0.33 nM.
To `Cn1ncc2c1CCC[C@]2(O)c1nc(-c2ccc(C(=O)Nc3cc(C(F)(F)F)ccn3)cc2)c2c(N)nccn12` [Example 3, (R)-4-(8-amino-3-(4-hydroxy-1-methyl-4,5,6,7-tetrahydro-1H-indazol-4-yl)imidazo[1,5-a]pyrazin-1-yl)-N-(4-(trifluoromethyl)pyridin-2-yl)benzamide] belongs 2 nM; to `Nc1ncnc2c1c(-c1ccc(C(=O)Nc3cc(C(F)(F)F)ccn3)cc1)nn2[C@@H]1CCCc2[nH]ncc21` [Example 5, (R)-4-(4-amino-1-(4,5,6,7-tetrahydro-1H-indazol-4-yl)-1H-pyrazolo[3,4-d]pyrimidin-3-yl)-N-(4-(trifluoromethyl)pyridin-2-yl)benzamide], 0.52 nM; to `Nc1ncnc2c1c(-c1ccc(C(=O)Nc3cc(C(F)(F)F)ccn3)cc1)nn2[C@H]1CCCc2[nH]ncc21` [Example 6, (S)-4-(4-amino-1-(4,5,6,7-tetrahydro-1H-indazol-4-yl)-1H-pyrazolo[3,4-d]pyrimidin-3-yl)-N-(4-(trifluoromethyl)pyridin-2-yl)benzamide], 60 nM.
Turning to `Cn1ncc2c1CCC[C@H]2n1nc(-c2ccc(C(=O)Nc3cc(C(F)(F)F)ccn3)cc2)c2c(N)ncnc21` [Example 7, (R)-4-(4-amino-1-(1-methyl-4,5,6,7-tetrahydro-1H-indazol-4-yl)-1H-pyrazolo[3,4-d]pyrimidin-3-yl)-N-(4-(trifluoromethyl)pyridin-2-yl)benzamide], the IC50 was found to be 5.9 nM.
In the case of `Cn1cc2c(n1)CCC[C@H]2n1nc(-c2ccc(C(=O)Nc3cc(C(F)(F)F)ccn3)cc2)c2c(N)ncnc21` [Example 8, (R)-4-(4-amino-1-(2-methyl-4,5,6,7-tetrahydro-2H-indazol-4-yl)-1H-pyrazolo[3,4-d]pyrimidin-3-yl)-N-(4-(trifluoromethyl)pyridin-2-yl)benzamide], the IC50 was 3.2 nM.
To `Cn1cc2c(n1)CCC[C@@H]2n1nc(-c2ccc(C(=O)Nc3cc(C(F)(F)F)ccn3)cc2)c2c(N)ncnc21` [Example 10, (S)-4-(4-amino-1-(2-methyl-4,5,6,7-tetrahydro-2H-indazol-4-yl)-1H-pyrazolo[3,4-d]pyrimidin-3-yl)-N-(4-(trifluoromethyl)pyridin-2-yl)benzamide] belongs 83 nM; to `CCn1ncc2c1CCC[C@H]2n1nc(-c2ccc(C(=O)Nc3cc(C(F)(F)F)ccn3)cc2)c2c(N)ncnc21` [Example 11, (R)-4-(4-amino-1-(1-ethyl-4,5,6,7-tetrahydro-1H-indazol-4-yl)-1H-pyrazolo[3,4-d]pyrimidin-3-yl)-N-(4-(trifluoromethyl)pyridin-2-yl)benzamide], 3.2 nM.
In the case of `CCn1cc2c(n1)CCC[C@H]2n1nc(-c2ccc(C(=O)Nc3cc(C(F)(F)F)ccn3)cc2)c2c(N)ncnc21` [Example 12, (R)-4-(4-amino-1-(2-ethyl-4,5,6,7-tetrahydro-2H-indazol-4-yl)-1H-pyrazolo[3,4-d]pyrimidin-3-yl)-N-(4-(trifluoromethyl)pyridin-2-yl)benzamide], the IC50 came to 13 nM.
To `CCn1ncc2c1CCC[C@@H]2n1nc(-c2ccc(C(=O)Nc3cc(C(F)(F)F)ccn3)cc2)c2c(N)ncnc21` [Example 13, (S)-4-(4-amino-1-(1-ethyl-4,5,6,7-tetrahydro-1H-indazol-4-yl)-1H-pyrazolo[3,4-d]pyrimidin-3-yl)-N-(4-(trifluoromethyl)pyridin-2-yl)benzamide] belongs 5.9 nM; to `CCn1cc2c(n1)CCC[C@@H]2n1nc(-c2ccc(C(=O)Nc3cc(C(F)(F)F)ccn3)cc2)c2c(N)ncnc21` [Example 14, (S)-4-(4-amino-1-(2-ethyl-4,5,6,7-tetrahydro-2H-indazol-4-yl)-1H-pyrazolo[3,4-d]pyrimidin-3-yl)-N-(4-(trifluoromethyl)pyridin-2-yl)benzamide], 54 nM.
As to `Nc1ncnc2c1c(-c1ccc(C(=O)Nc3cc(C(F)(F)F)ccn3)cc1)nn2[C@@H]1CCCc2c1cnn2CCO` [Example 15, (R)-4-(4-amino-1-(1-(2-hydroxyethyl)-4,5,6,7-tetrahydro-1H-indazol-4-yl)-1H-pyrazolo[3,4-d]pyrimidin-3-yl)-N-(4-(trifluoromethyl)pyridin-2-yl)benzamide], the IC50 came to 1.1 nM.
On to `Nc1ncnc2c1c(-c1ccc(C(=O)Nc3cc(C(F)(F)F)ccn3)cc1)nn2[C@@H]1CCCc2nn(CCO)cc21` [Example 16, (R)-4-(4-amino-1-(2-(2-hydroxyethyl)-4,5,6,7-tetrahydro-2H-indazol-4-yl)-1H-pyrazolo[3,4-d]pyrimidin-3-yl)-N-(4-(trifluoromethyl)pyridin-2-yl)benzamide], for which the IC50 stood at 0.45 nM.
For the compound `Nc1ncnc2c1c(-c1ccc(C(=O)Nc3cc(C(F)(F)F)ccn3)cc1)nn2[C@H]1CCCc2c1cnn2CCO` [Example 17, (S)-4-(4-amino-1-(1-(2-hydroxyethyl)-4,5,6,7-tetrahydro-1H-indazol-4-yl)-1H-pyrazolo[3,4-d]pyrimidin-3-yl)-N-(4-(trifluoromethyl)pyridin-2-yl)benzamide], the IC50 came out at 2.1 nM.
Take `Nc1ncnc2c1c(-c1ccc(C(=O)Nc3cc(C(F)(F)F)ccn3)cc1)nn2[C@H]1CCCc2nn(CCO)cc21` [Example 18, (S)-4-(4-amino-1-(2-(2-hydroxyethyl)-4,5,6,7-tetrahydro-2H-indazol-4-yl)-1H-pyrazolo[3,4-d]pyrimidin-3-yl)-N-(4-(trifluoromethyl)pyridin-2-yl)benzamide]: the IC50 was 1.3 nM.
In the case of `Nc1nccn2c([C@@H]3CCCn4c(C5CC5)nnc43)nc(-c3ccc(C(=O)Nc4cc(C(F)(F)F)ccn4)cc3)c12` [Example 19, (S)-4-(8-amino-3-(3-cyclopropyl-5,6,7,8-tetrahydro-[1,2,4]triazolo[4,3-a]pyridin-8-yl)imidazo[1,5-a]pyrazin-1-yl)-N-(4-(trifluoromethyl)pyridin-2-yl)benzamide], the IC50 stood at 67 nM.
For `Nc1nccn2c([C@H]3CCCn4c(C5CC5)nnc43)nc(-c3ccc(C(=O)Nc4cc(C(F)(F)F)ccn4)cc3)c12` [Example 20, (R)-4-(8-amino-3-(3-cyclopropyl-5,6,7,8-tetrahydro-[1,2,4]triazolo[4,3-a]pyridin-8-yl)imidazo[1,5-a]pyrazin-1-yl)-N-(4-(trifluoromethyl)pyridin-2-yl)benzamide], the IC50 came out at 56 nM.
To `Nc1nccn2c([C@H]3CCn4c(nnc4C(F)(F)F)C3)nc(-c3ccc(C(=O)Nc4cc(C(F)(F)F)ccn4)cc3)c12` [Example 21, (S)-4-(8-amino-3-(3-(trifluoromethyl)-5,6,7,8-tetrahydro-[1,2,4]triazolo[4,3-a]pyridin-7-yl)imidazo[1,5-a]pyrazin-1-yl)-N-(4-(trifluoromethyl)pyridin-2-yl)benzamide] belongs 0.81 nM; to `Nc1nccn2c([C@@H]3CCn4c(nnc4C(F)(F)F)C3)nc(-c3ccc(C(=O)Nc4cc(C(F)(F)F)ccn4)cc3)c12` [Example 22, (R)-4-(8-amino-3-(3-(trifluoromethyl)-5,6,7,8-tetrahydro-[1,2,4]triazolo[4,3-a]pyridin-7-yl)imidazo[1,5-a]pyrazin-1-yl)-N-(4-(trifluoromethyl)pyridin-2-yl)benzamide], 11 nM.
In the case of `Cn1ncc2c1CCC[C@H]2c1nc(-c2ccc(C(=O)Nc3cc(C(F)(F)F)ccn3)cc2)c2c(N)nccn12` [Example 23, (R)-4-(8-amino-3-(1-methyl-4,5,6,7-tetrahydro-1H-indazol-4-yl)imidazo[1,5-a]pyrazin-1-yl)-N-(4-(trifluoromethyl)pyridin-2-yl)benzamide], the IC50 was 1000 nM.
Consider `Cn1ncc2c1CCC[C@@H]2c1nc(-c2ccc(C(=O)Nc3cc(C(F)(F)F)ccn3)cc2)c2c(N)nccn12` [Example 24, (S)-4-(8-amino-3-(1-methyl-4,5,6,7-tetrahydro-1H-indazol-4-yl)imidazo[1,5-a]pyrazin-1-yl)-N-(4-(trifluoromethyl)pyridin-2-yl)benzamide], for which the IC50 amounted to 740 nM.
Consider `CC(C)Oc1ccnc(NC(=O)c2ccc(-c3nc(N4CCn5c(nnc5C(F)(F)F)C4)n4ccnc(N)c34)cc2)c1` [Example 25, 4-(8-amino-3-(3-(trifluoromethyl)-5,6-dihydro-[1,2,4]triazolo[4,3-a]pyrazin-7(8H)-yl)imidazo[1,5-a]pyrazin-1-yl)-N-(4-isopropoxypyridin-2-yl)benzamide], for which the IC50 turned out to be 43 nM.
